Source: patent publication US7799794B2, “Treatment for cardiovascular disease” (Merck Sharp & Dohme Corp., priority 2000, dated 2010)

Test system: Sprague-Dawley rats
Assay: Renal findings at 11 weeks: immunohistochemistry and BUN (Example 3)
Format: in vivo, rat
Description: Rats were placed on the low sodium diet with oxonic acid for 7 weeks, and then were matched based on uric acid level and blood pressure in various groups to either receive allopurinol, have the oxonic acid withdrawn from the diet, or continue the oxonic acid/low salt diet. A control group of six rats were placed on the lowsodium diet alone for 11 weeks. All of these rats were sacrificed at week 11.
Am J Clin Pathol 1957; 28:152.]. Serum blood urea nitrogen was measured by a standard kit (Sigma, St Louis, Mo.).
Renal biopsies were fixed in Methyl-Carnoy's, 10% formalin or 100% ethanol and embedded in paraffin. The presence of uric acid crystals was evaluated by staining 4-μm ethanol-fixed sections with de Galantha and modified Von Kossa stains. Kidney tissue from rats with acute uric acid nephropathy, induced with oxonic acid and uric acid administration was used as a positive control [Stavric, B., Johnson, W. J., and Grice, H. C., Uric acid nephropathy: An experimental model, Proc. Soc. Exp. Biol. Med. 130: 512-16 (1969).]. Light microscopy was performed in 4-μm sections of Methyl-Carnoy's fixed tissue stained with periodic acid Schiff (PAS) reagent or with hematoxylin and eosin.
Methyl-Carnoy's fixed tissue sections were analyzed by indirect immunoperoxidase [Lombardi, D., Gordon , K. L., Polinsky, P., Suga, S., Schwartz, S. M., and Johnson, R. J. Salt sensitive hypertension develops after transient exposure to angiotensin II. Hypertension 33:1013-1019, 1999] staining with the following primary antibodies: OP199, a goat polyclonal antibody against osteopontin (OPN)(gift of C. Giachelli, Univ of Wash., Seattle); ED-1, a monoclonal antibody to rat monocytes and macrophages (Serotec); goat antihuman type III collagen (Southern Biotechnology Associates Inc, Birminghan Ala.); and anti-renin, a mouse antibody to human renin (Sanofi Recherche, Montpellier, France). Sections were incubated with a secondary antibody followed by horseradish peroxidase-conjugated avidin D (Vector Laboratories, Burlingame, Calif.), diaminobenzidine (Sigma) with or without nickel chloride as a chromogen, and counsterstained with methyl green.
NOS1 was detected on formalin fixed tissue sections with a rabbit anti-rat neuronal nitric oxide synthase (Transduction Laboratories, Lexington, Ky.), followed by a biotinylated secondary antibody, diaminobenzidine with nickel chloride and counterstained with nuclear fast red.
All quantification was performed blinded. The tubular expression of osteopontin (OPN), which is a sensitive marker of tubulointerstitial injury, was calculated as the percent of renal cortex occupied by OPN-positive tubules [Lombardi, D., Gordon, K. L., Polinsky, P., Suga, S., Schwartz, S. M., and Johnson, R. J. Salt sensitive hypertension develops after transient exposure to angiotensin II. Hypertension 33:1013-1019, 1999]. Utilizing computer-assisted image analysis software (Optimas V6.2, Media Cybernetics, Silver Springs, Md.) and digitized images, the percent of area occupied by OPN positive tubules per 4 mm^2 field at a magnification of 50× was measured and the mean percent area calculated for each biopsy. The interstitial deposition of collagen type III was calculated as the % of renal cortex occupied by collagen III, noted by immunostaining, by computer image analysis. The mean number of interstitial macrophages (ED-1+cells) in each biopsy was calculated in a blinded manner by counting the total number of positive interstitial cortical cells in 20 sequentially selected 0.25 mm^2 grids at 200× magnification. Renin expression was quantified by the number of glomeruli with positive staining for juxtaglomerular renin using a minimum of 100 glomeruli in each biopsy as previously described [Eng, E., et al., Renal proliferation and phenotypic changes in rats with two-kidney, one-clip Goldblatt hypertension. […]

O=C(O)c1nc(=O)[nH]c(=O)[nH]1 [oxonic acid]
BUN (OA withdrawal at 7 weeks): 18.8 ± 0.8 mg/dL
ED-1 (macrophages) (OA withdrawal at 7 weeks): 33.0 ± 1.6 cells/mm2
NOS-1 (OA withdrawal at 7 weeks): 83.1 ± 10.8 positive cells/100 glomeruli
OPN (OA withdrawal at 7 weeks): 1.08 ± 0.06 % increase
Renin (OA withdrawal at 7 weeks): 50.5 ± 2.1 % positive JGA
Type III collagen (OA withdrawal at 7 weeks): 8.9 ± 1.6 %
OPN (low NaCl diet, allopurinol added at 7 weeks, control 0.7 ± 0.08): 1.33 ± 0.14 % increase
Type III collagen (low NaCl diet, allopurinol added at 7 weeks, control 7.2 ± 0.6): 13.9 ± 0.6 %
BUN (low NaCl diet, allopurinol added at 7 weeks, control 16.6 ± 0.9): 24.1 ± 1.7 mg/dL
ED-1 (macrophages) (low NaCl diet, allopurinol added at 7 weeks, control 27.8 ± 1.4): 36.5 ± 1.4 cells/mm2
Renin (low NaCl diet, allopurinol added at 7 weeks, control 41.0 ± 1.9): 58.4 ± 0.8 % positive JGA
NOS-1 (low NaCl diet, allopurinol added at 7 weeks, control 104.4 ± 11.5): 65.6 ± 7.1 positive cells/100 glomeruli
